Patent US20240269139A1, “COMPOUNDS FOR TARGETED PROTEIN DEGRADATION OF KINASES” (DANA-FARBER CANCER INSTITUTE, INC., priority 2020, published 2024)
Read-outs that look alike come from different tables or passages of the source.

Tests used:
Type in all cases: cell-based
[1] = molecular target: protein kinases (human kinome) (Homo sapiens, UniProt P12931); conditions: experiment wp160, 4 hr
[2] = molecular target: T1, protein kinases (human kinome) (Homo sapiens, UniProt O00444)
T1 sequence (O00444 1-970): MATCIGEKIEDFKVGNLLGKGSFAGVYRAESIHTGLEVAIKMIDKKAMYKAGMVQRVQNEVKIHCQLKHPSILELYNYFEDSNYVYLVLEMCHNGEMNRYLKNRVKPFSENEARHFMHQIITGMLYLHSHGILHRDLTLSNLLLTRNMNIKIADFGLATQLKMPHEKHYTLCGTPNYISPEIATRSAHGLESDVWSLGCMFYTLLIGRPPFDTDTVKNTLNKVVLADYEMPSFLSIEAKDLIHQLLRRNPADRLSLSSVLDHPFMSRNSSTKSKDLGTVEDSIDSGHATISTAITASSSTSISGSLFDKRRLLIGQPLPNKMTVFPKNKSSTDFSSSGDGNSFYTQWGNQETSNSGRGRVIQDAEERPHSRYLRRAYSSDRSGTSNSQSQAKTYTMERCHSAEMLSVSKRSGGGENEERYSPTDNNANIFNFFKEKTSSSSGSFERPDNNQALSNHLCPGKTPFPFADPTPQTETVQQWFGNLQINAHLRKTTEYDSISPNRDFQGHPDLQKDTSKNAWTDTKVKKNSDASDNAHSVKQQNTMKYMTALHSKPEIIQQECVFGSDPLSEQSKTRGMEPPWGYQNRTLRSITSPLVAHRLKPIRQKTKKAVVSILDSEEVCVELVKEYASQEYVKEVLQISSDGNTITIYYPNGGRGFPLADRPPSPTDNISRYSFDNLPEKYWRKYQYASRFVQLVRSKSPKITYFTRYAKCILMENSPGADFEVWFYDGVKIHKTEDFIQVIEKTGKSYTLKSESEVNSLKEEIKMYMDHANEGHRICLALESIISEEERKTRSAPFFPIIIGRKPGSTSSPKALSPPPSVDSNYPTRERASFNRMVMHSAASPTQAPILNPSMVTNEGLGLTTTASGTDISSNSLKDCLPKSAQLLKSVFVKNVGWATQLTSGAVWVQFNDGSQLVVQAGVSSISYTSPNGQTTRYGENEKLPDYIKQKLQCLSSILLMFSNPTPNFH

[3] = molecular target: protein kinases (human kinome) (Homo sapiens, UniProt O94921); conditions: for logFC: CDK14 (O94921-1)
[4] = molecular target: protein kinases (human kinome) (Homo sapiens, UniProt O14874); conditions: BCKDK (O14874), experiment wp160, 1 hr
[5] = molecular target: protein kinases (human kinome) (Homo sapiens, UniProt Q9BYT3); conditions: STK33 (Q9BYT3-1)
[6] = molecular target: protein kinases (human kinome) (Homo sapiens, UniProt Q15418); conditions: for logFC: RPS6KA1 (Q15418-1), direction down
[7] = molecular target: protein kinases (human kinome) (Homo sapiens, UniProt Q15208); conditions: for logFC: STK38 (Q15208)
[8] = experiment wp146, direction down

Sequence of protein kinases (human kinome) (Homo sapiens, UniProt Q9BYT3) (Q9BYT3 whole entry): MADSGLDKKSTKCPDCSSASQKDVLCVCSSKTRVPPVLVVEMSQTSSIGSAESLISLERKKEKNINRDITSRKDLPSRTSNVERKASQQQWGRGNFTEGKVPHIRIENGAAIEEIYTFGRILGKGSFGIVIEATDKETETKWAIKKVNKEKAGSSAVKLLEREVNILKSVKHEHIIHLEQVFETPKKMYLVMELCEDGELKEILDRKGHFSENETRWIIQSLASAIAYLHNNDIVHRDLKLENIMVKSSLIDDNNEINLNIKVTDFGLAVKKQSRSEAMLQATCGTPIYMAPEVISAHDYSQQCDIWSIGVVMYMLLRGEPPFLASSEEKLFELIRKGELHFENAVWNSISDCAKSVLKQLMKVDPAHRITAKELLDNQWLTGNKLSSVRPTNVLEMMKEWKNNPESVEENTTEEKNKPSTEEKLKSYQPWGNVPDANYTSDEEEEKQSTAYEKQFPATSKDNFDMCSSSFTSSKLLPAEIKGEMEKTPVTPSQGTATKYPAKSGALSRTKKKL
Sequence of protein kinases (human kinome) (Homo sapiens, UniProt Q15208) (Q15208 whole entry): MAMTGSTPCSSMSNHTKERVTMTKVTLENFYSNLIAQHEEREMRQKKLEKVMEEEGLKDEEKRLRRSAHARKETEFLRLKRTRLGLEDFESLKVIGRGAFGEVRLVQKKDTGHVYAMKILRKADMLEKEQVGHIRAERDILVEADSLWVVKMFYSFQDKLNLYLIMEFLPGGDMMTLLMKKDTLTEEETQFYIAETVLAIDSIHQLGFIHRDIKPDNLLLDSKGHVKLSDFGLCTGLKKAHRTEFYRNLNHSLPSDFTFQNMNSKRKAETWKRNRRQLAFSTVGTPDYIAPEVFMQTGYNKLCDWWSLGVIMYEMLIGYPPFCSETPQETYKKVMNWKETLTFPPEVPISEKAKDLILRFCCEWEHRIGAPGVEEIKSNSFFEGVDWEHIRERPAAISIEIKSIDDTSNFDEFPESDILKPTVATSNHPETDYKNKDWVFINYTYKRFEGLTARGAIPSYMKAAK
Sequence of protein kinases (human kinome) (Homo sapiens, UniProt Q15418) (Q15418 whole entry): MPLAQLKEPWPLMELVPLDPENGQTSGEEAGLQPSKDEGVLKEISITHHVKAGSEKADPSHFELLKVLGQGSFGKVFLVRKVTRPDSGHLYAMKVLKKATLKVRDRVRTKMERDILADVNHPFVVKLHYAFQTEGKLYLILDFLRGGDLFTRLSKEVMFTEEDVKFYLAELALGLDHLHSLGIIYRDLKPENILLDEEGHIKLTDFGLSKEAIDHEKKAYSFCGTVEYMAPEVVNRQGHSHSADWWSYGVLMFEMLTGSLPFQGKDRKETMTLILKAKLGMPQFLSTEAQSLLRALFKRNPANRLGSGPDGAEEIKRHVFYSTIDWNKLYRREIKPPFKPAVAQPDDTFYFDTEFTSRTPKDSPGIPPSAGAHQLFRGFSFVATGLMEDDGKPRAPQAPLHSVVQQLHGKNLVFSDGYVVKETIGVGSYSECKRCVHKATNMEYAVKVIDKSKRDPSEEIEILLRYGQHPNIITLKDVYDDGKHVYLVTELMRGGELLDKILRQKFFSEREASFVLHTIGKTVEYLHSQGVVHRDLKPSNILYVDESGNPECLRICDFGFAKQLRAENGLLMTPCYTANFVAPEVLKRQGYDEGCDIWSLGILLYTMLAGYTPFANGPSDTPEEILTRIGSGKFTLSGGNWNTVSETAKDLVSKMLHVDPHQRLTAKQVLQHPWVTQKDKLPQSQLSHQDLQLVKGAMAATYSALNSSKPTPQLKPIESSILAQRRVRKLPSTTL
Sequence of protein kinases (human kinome) (Homo sapiens, UniProt O94921) (O94921 whole entry): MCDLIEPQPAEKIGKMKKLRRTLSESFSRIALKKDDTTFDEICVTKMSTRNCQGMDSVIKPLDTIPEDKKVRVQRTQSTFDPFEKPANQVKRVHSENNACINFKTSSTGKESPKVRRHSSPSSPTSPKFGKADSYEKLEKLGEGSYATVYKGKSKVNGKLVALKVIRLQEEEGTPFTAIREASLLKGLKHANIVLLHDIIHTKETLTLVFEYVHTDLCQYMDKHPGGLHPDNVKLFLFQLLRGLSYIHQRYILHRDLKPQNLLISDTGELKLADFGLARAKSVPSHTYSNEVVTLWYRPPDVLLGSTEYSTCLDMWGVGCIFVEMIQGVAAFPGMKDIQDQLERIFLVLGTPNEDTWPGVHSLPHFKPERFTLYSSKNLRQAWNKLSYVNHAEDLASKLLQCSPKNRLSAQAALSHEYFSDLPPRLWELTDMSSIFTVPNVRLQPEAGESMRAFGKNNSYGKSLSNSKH
Sequence of protein kinases (human kinome) (Homo sapiens, UniProt P12931) (P12931 whole entry): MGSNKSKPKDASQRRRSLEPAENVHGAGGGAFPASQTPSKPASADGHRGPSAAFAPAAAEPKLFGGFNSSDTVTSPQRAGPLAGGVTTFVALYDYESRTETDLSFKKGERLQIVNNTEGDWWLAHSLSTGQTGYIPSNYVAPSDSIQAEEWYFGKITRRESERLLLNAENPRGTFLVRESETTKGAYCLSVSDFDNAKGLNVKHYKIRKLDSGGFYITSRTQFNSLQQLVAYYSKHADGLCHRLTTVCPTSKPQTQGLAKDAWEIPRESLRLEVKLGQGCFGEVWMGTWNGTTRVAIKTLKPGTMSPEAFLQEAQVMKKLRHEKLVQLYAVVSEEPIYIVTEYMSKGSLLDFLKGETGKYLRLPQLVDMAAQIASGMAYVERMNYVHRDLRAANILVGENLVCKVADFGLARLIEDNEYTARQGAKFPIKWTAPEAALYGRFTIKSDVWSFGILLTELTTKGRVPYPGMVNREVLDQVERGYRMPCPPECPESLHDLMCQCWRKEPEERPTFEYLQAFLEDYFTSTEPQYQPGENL

## CC(C)S(=O)(=O)c1ccccc1Nc1nc(Nc2ccc(N3CCN(CCOCCNC(=O)CNc4cccc5c4C(=O)N(C4CCC(=O)NC4=O)C5=O)CC3)cc2)ncc1Cl (centres unmarked) [SK.3.91]
[1]; Accession P12931
  logFC of SRC: −0.5292
[1]; SRC (P12931), direction down
  logFC: −0.5292
[2]; Accession O00444, experiment wp103, direction down
  logFC PLK4: −1.243
[2]; Accession O00444, experiment wp107, direction down
  logFC PLK4: −1.036
[2]; Accession O00444, experiment wp133, 1 hr, direction down
  logFC PLK4: −0.726
[2]; Accession O00444, experiment wp133, 2 hr, direction down
  logFC PLK4: −1.523
[2]; Accession O00444, experiment wp133, 4 hr, direction down
  logFC PLK4: −2.258
[2]; Accession O00444, experiment wp160, 2 hr, direction down
  logFC PLK4: −0.9266
[2]; Accession O00444, experiment wp160, 4 hr, direction down
  logFC PLK4: −1.169
[2]; PLK4 (O00444), experiment wp133, 1 hr
  logFC PLK4: −0.726
[2]; PLK4 (O00444), experiment wp133, 2 hr
  logFC PLK4: −1.523
[2]; PLK4 (O00444), experiment wp133, 4 hr
  logFC PLK4: −2.258
[2]; PLK4 (O00444), experiment wp160, 2 hr
  logFC PLK4: −0.9266
[2]; PLK4 (O00444), experiment wp160, 4 hr
  logFC PLK4: −1.169
[2]; experiment wp103
  logFC PLK4 (O00444): −1.243
[2]; experiment wp107
  logFC PLK4 (O00444): −1.036
[3]; experiment wp172
  logFC: −0.8176
[3]; Experiment wp172
  logFC of CDK14 (O94921-1): −0.8176
[4]
  logFC: −0.8683
[4]; direction down
  logFC: −0.8683
[5]; experiment wp105
  logFC: −2.057
[5]; experiment wp105, direction down
  logFC: −2.057
[5]; experiment wp172
  logFC: −2.227
[5]; experiment wp172, direction down
  logFC: −2.227
[6]; Experiment wp172
  logFC RPS6KA1 (Q15418-1): −0.4561
[6]; experiment wp107
  logFC: −0.3671
  logFC RPS6KA1 (Q15418-1): −0.3671
[6]; experiment wp160, 4 hr
  logFC: −0.363
  logFC RPS6KA1 (Q15418-1): −0.363
[6]; experiment wp172
  logFC: −0.4561

## Cc1cc(Nc2ncc(Br)c(Nc3cccc(F)c3C(N)=O)n2)ccc1S(=O)(=O)NCCOCCOCCOCCOCCNc1cccc2c1C(=O)N(C1CCC(=O)NC1=O)C2=O (centres unmarked) [TMX.02.174]
[7]; experiment wp146
  logFC: −0.4117
  logFC of STK38 (Q15208): −0.4117
[5]; experiment wp146
  logFC: −1.763
[5]; [8]
  logFC: −1.763

## CC(C)S(=O)(=O)c1ccccc1Nc1nc(Nc2ccc(N3CCN(CCOCCOCCC(=O)NCCNc4cccc5c4CN(C4CCC(=O)NC4=O)C5=O)CC3)cc2)ncc1Cl (centres unmarked) [TL13.97]
[2]; Accession O00444, experiment wp137, direction down
  logFC PLK4: −1.049
[2]; PLK4 (O00444), experiment wp137
  logFC PLK4: −1.049
[7]; experiment wp137
  logFC: −0.3912
  logFC of STK38 (Q15208): −0.3912

## NC(=O)c1c(F)cccc1Nc1nc(Nc2ccc(S(=O)(=O)NCCOCCOCCOCCOCCNc3cccc4c3C(=O)N(C3CCC(=O)NC3=O)C4=O)cc2)ncc1Br (centres unmarked) [TMX.02.138]
[7]; experiment wp146
  logFC: −0.3476
  logFC of STK38 (Q15208): −0.3476
[5]; experiment wp146
  logFC: −1.335
[5]; [8]
  logFC: −1.335

## O=C1CCC(N2C(=O)c3cccc(NCCCCCCCCN4CCC(NC(=O)c5[nH]ncc5NC(=O)c5c(Cl)cccc5Cl)CC4)c3C2=O)C(=O)N1 (centres unmarked) [MFH.5.126.1]
[3]; experiment wp076
  logFC: −0.3413
  logFC of CDK14 (O94921-1): −0.3413
